# From patent US9284303B2, “Benzimidazole cannabinoid agonists bearing a substituted heterocyclic group” (priority 2006, dated 2016)
# Where two headings read alike, the source gives them in different places.
# Key:
# [1] = biological target: T1, human CB2 (hCB2) receptor (Homo sapiens, UniProt P34972); test: Inhibition of forskolin-activated cAMP production upon activation of hCB2 (HTRF), CHO-K1 cells; assay type: cell-based; details: for ratio CB2 agonism over CB1 agonism: Table C-1, selectivity hCB2 over hCB1; for ratio CB2 over CB1 agonism: Table C-3, comparison of art compounds A to E with compounds of the invention
# T1 construct: expressed in transfected cells; host or cells: CHO-K1
# T1 sequence (P34972 whole entry): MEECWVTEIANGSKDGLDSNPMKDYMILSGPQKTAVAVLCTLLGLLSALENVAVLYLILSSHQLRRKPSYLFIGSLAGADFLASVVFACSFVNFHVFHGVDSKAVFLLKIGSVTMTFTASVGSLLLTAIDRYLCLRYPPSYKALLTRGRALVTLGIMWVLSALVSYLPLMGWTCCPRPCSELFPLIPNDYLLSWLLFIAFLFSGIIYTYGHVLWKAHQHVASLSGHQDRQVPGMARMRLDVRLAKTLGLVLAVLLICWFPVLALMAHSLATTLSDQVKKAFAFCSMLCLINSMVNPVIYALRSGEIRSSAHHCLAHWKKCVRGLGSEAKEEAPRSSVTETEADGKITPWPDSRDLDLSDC
# [2] = biological target: T2, human CB1 (hCB1) receptor (Homo sapiens, UniProt P21554); test: Inhibition of forskolin-activated cAMP production upon activation of hCB1 (HTRF), CHO-K1 cells; assay type: cell-based; details: forskolin-activated cAMP, pEC50=-log(EC50); for EC50: CB1 pEC50, hCB1-CHO-K1 cells; for CB1 pEC50: hCB1-CHO-K1 cells
# T2 construct: expressed in transfected cells; host or cells: CHO-K1
# T2 sequence (P21554 whole entry): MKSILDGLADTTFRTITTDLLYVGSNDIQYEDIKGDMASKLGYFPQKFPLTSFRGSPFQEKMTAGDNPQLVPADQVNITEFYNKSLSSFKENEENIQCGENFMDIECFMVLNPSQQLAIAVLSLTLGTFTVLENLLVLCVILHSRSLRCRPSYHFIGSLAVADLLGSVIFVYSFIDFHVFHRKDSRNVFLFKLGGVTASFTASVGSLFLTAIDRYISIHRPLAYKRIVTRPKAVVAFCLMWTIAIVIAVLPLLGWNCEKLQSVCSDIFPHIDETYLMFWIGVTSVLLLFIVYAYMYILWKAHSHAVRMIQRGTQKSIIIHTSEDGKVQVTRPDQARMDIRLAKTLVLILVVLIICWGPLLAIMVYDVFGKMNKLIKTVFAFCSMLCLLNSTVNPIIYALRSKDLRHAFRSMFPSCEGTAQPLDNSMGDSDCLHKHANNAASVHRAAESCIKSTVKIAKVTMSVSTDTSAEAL
# How it was run: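 CHO-K1 cells stably expressing hCB1 (20,000/well) were in HBSS stimulation buffer (1 mM IBMX, 10 mM MgCl2, 0.1% BSA, pH 7.4), with 6 μM forskolin in the compound buffer, 30 min at room temperature in the dark. cAMP was read as HTRF 665/620 ratio, normalized to DMSO and CP55490. Outputs were pEC50 and inhibition at 10 μM relative to CP55490.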
# [3] = hCB2-CHO-K1 cells, forskolin-activated cAMP, pEC50=-log(EC50), read-out: CB2 pEC50 (converted)
SMILES,ratio CB2 agonism over CB1 agonism [1],"EC50 [1, 3] [nM]",melting point [°C],EC50 [2] [nM],ratio CB2 over CB1 agonism [1],CB1 pEC50 [2],"EC50 ([1]; CB2 pEC50, hCB2-CHO-K1 cells, forskolin-activated cAMP, pEC50=-log(EC50)) [nM]","CB2 pEC50 ([1]; hCB2-CHO-K1 cells, forskolin-activated cAMP, pEC50=-log(EC50))",ratio CB2 agonism over CB1 agonism ([1]; listed as 62)
CC(=O)c1ccc(S(=O)(=O)c2ccc3c(c2)nc(C(C)(C)C)n3CC2CCOCC2)cn1 [Co. No. 50],6457,0.692,162,4470,–,–,–,–,–
CC(C)(C)c1nc2cc(S(=O)(=O)c3ccnc(OCC(F)(F)F)c3)ccc2n1CC1CCOCC1 [Co. No. 23],398,1.02,166.7,407,398,–,–,–,–
CO[C@H]1CC[C@@H](Cn2c(C(C)(C)C)nc3cc(S(=O)(=O)c4ccnc(F)c4)ccc32)CC1 [Co. No. 162],>27542,0.363,133.5,> 10000,–,–,–,–,–
CC(C)(C)c1nc2cc(S(=O)(=O)c3ccc(S(=O)(=O)N4CCOCC4)s3)ccc2n1CC1CCOCC1 [Co. No. 7],>5495,1.82,198,> 10000,–,–,–,–,–
Cc1nc(-c2csc(S(=O)(=O)c3ccc4c(c3)nc(C(C)(C)C)n4CC3CCOCC3)c2)no1 [Co. No. 5],676,0.372,192 to 193,257,–,–,–,–,–
CC(=O)NCc1ccc(S(=O)(=O)c2ccc3c(c2)nc(C(C)(C)C)n3CC2CCOCC2)cn1 [Co. No. 117],219,4.47,199.4,977,–,–,–,–,–
CC(C)(C)c1nc2cc(S(=O)(=O)c3ccc(C(F)(F)F)cn3)ccc2n1CC1CCOCC1 [Co. No. 99],700,1.32,140.5 to 142.3,933,–,–,–,–,–
CC(C)(C)c1nc2cc(S(=O)(=O)c3ccc(C(N)=O)o3)ccc2n1CC1CCOCC1 [Co. No. 12],302,1.55,234.8,468,302,–,–,–,–
CC(=O)Nc1cc(S(=O)(=O)c2ccc3c(c2)nc(C(C)(C)C)n3CC2CCOCC2)cc[n+]1[O-] [Co. No. 96],–,2,247.2,> 10000,–,–,–,–,–
CC1(C)CC(Cn2c(C(C)(C)C)nc3cc(S(=O)(=O)c4ccnc(F)c4)ccc32)CCO1 (centres unmarked) [Co. No. 149],>8035,1.26,159.4,> 10000,–,–,–,–,–
CC(C)(C)c1nc2cc(S(=O)(=O)c3ccnc(N)c3)ccc2n1CC1CCOCC1 [Co. No. 19],638,1.12,235.9,724,638,–,–,–,–
CC(C)(C)c1nc2cc(S(=O)(=O)c3ccc(C#N)o3)ccc2n1CC1CCOCC1 [Co. No. 60],638,1.05,145.5 to 145.7,661,–,–,–,–,–
CC(C)(C)Cc1nc2cc(S(=O)(=O)c3cc[n+]([O-])cc3)ccc2n1CC1CCOCC1 [Co. No. 103],–,7.08,259.7,2090,–,–,–,–,–
CC(C)(C)c1nc2cc(S(=O)(=O)c3ccnc(F)c3)ccc2n1CC1CCS(=O)(=O)CC1 [Co. No. 133],>2512,3.98,220.8,> 10000,–,–,–,–,–
Cc1oc(S(=O)(=O)c2ccc3c(c2)nc(C(C)(C)C)n3CC2CCOCC2)cc1S(C)(=O)=O [Co. No. 68],116,3.09,204 to 205,363,–,–,–,–,–
CC(C)(C)c1nc2cc(S(=O)(=O)c3cncc(C#N)c3)ccc2n1CC1CCOCC1 [Co. No. 43],1622,1,240,1620,–,–,–,–,–

SMILES,ratio CB2 agonism over CB1 agonism [1],"EC50 [1, 3] [nM]",melting point [°C],EC50 [2] [nM],ratio CB2 over CB1 agonism [1],CB1 pEC50 [2],"EC50 ([1]; CB2 pEC50, hCB2-CHO-K1 cells, forskolin-activated cAMP, pEC50=-log(EC50)) [nM]","CB2 pEC50 ([1]; hCB2-CHO-K1 cells, forskolin-activated cAMP, pEC50=-log(EC50))",ratio CB2 agonism over CB1 agonism ([1]; listed as 62)
COCCOc1cc(S(=O)(=O)c2ccc3c(c2)nc(C(C)(C)C)n3CC2CCOCC2)ccn1 [Co. No. 150],638,1.26,142.9,–,–,6.09,–,–,–
Cn1cc(S(=O)(=O)c2ccc3c(c2)nc(C(C)(C)C)n3CC2CCOCC2)ccc1=O [Co. No. 28],>3467,2.88,170,> 10000,3467,–,–,–,–
CC(C)(C)Cn1c(C(C)(C)C)nc2cc(S(=O)(=O)c3ccnc(F)c3)ccc21 [Co. No. 127],6026,–,135.4,> 10000,–,–,1.66,–,–
CC(C)(C)c1nc2cc(S(=O)(=O)c3ccc(S(C)(=O)=O)cn3)ccc2n1CC1CCOCC1 [Co. No. 67],>2344,4.27,183,> 10000,–,–,–,–,–
CC(C)(C)c1nc2cc(S(=O)(=O)c3ccnc(F)c3)ccc2n1CCN1CCCC1 [Co. No. 144],>3090,3.24,115.5,> 10000,–,–,–,–,–
CC(=O)NCCc1cc(S(=O)(=O)c2ccc3c(c2)nc(C(C)(C)C)n3CC2CCOCC2)ccn1 [Co. No. 158],5888,–,160.3,–,–,5.08,–,8.85,–
CC(=O)NCCOc1cc(S(=O)(=O)c2ccc3c(c2)nc(C(C)(C)C)n3CC2CCOCC2)ccn1 [Co. No. 121],912,3.09,182.3,2820,–,–,–,–,–
CC(=O)c1ccc(S(=O)(=O)c2ccc3c(c2)nc(C(C)(C)C)n3CC2CCOCC2)nc1 [Co. No. 4],1679,1.91,> 120,3240,1679,–,–,–,–
COC(=O)c1cc(C)c(S(=O)(=O)c2ccc3c(c2)nc(C(C)(C)C)n3CC2CCOCC2)s1 [Co. No. 81],2138,0.501,185.8,1070,–,–,–,–,–
CC(C)(C)c1nc2cc(S(=O)(=O)c3ccc(C(=O)N4CCOCC4)o3)ccc2n1CC1CCOCC1 [Co. No. 80],2483,4.17,172.1,10500,–,–,–,–,–
CC(C)(C)c1nc2cc(S(=O)(=O)c3ccc(C#N)nc3)ccc2n1CC1CCOCC1 [Co. No. 51],73,1.23,228,89.1,–,–,–,–,–
Cn1nc(S(=O)(=O)c2ccc3c(c2)nc(C(C)(C)C)n3CC2CCOCC2)ccc1=O [Co. No. 100],631,1.58,224.3,1000,–,–,–,–,–
CC(C)(C)c1nc2cc(S(=O)(=O)c3cc(C(F)(F)F)ccn3)ccc2n1CC1CCOCC1 [Co. No. 105],295,1.58,139.5 to 141,479,–,–,–,–,–
Cc1cc(S(=O)(=O)c2ccc3c(c2)nc(CC(C)(C)C)n3CC2CCOCC2)ccn1 [Co. No. 24],407,2.19,207.1,891,407,–,–,–,–
CC(C)(C)c1nc2cc(S(=O)(=O)c3sc(S(C)(=O)=O)cc3Br)ccc2n1CC1CCOCC1 [Co. No. 62],–,0.589,200,1950,–,–,–,–,3299
